Data set [1] concerns the target T1, Phenylethanolamine N-methyltransferase (Bos taurus, UniProt P10938).
T1 sequence (P10938 whole entry): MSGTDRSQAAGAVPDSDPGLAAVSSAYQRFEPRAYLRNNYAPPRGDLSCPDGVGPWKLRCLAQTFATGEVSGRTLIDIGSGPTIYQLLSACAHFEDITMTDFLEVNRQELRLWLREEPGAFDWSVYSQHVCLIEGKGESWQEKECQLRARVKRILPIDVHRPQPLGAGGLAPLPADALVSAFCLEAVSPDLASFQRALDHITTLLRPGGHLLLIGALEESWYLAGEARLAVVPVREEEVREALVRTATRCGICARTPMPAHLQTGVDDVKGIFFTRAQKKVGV
Briefly: Binding affinity to phenylethanolamine N-methyltransferase(PNMT) in bovine.

A short description of data set [2]: Ratio of Vmax to Km of compound was determined. Type of data set: ADME.
Data set [3] is described as follows: Vmax value was measured. In kind it is ADME.
A short description of data set [4]: Km value was measured. Type of data set: ADME.

What is called pKi is −log10 of the Ki, conventionally taken in molar units. A high value points to a low Ki. A word on the Vmax: it is the top rate of the reaction or transport when substrate is in excess. The term Km denotes the concentration of substrate that gives half-maximal velocity.

pKi: −log10 of the molar value.

In data set [1], `OC1CNCc2ccccc21` (stereo not drawn) gave a negative logarithm of the Ki (pKi) of 3.75.

Consider `c1ccc2c(c1)CCNC2` [1,2,3,4-TETRAHYDROISOQUINOLINE], for which the negative logarithm of the Ki (pKi) in data set [1] is 5.00.

As for `N[C@H]1CCc2ccccc2[C@H]1O`, in data set [2], the Ratio is on record as 68. Also, the maximal velocity (Vmax) in data set [3] was determined as 0.15 nmol/min/mg. Besides, the Michaelis-Menten constant (Km) in data set [4] amounted to 22 µM.

Consider `N[C@H]1CCc2ccccc2[C@@H]1O`, for which the negative-log Ki (pKi) in data set [1] is 5.03.

Regarding `NC[C@@H](O)c1ccccc1`, the maximum rate (Vmax) in data set [3] worked out at 2.2 nmol/min/mg. In addition, the Michaelis constant (Km) in data set [4] amounted to 70 µM.

The values above are taken from ChEMBL document CHEMBL1124303, “Conformational requirements of substrates for activity with phenylethanolamine N-methyltransferase” (J Med Chem, 1988).
